Measurements as given in ChEMBL document CHEMBL1201862, “PubChem BioAssay data set” (2004).
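Each compound was tested at five concentrations against cells in 96-well plates for 48 hours. GI50: concentration for 50% inhibition of growth.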 Active and inactive are the calls of the source. Cut-off read from the data, not from the text of the source: active = GI50 up to about 1.1 µM and inactive = higher.

Tests used:
Test in all cases: NCI-60 cell line screen, 48 h
A549 = test system: A549
CAKI-1 = test system: CAKI-1
CCRF-CEM = test system: CCRF-CEM
Hs-578T = test system: Hs-578T
K562 = test system: K562
KM12 = test system: KM12
M14 = test system: M14
MOLT-4 = test system: MOLT-4
OVCAR-5 = test system: OVCAR-5
OVCAR-8 = test system: OVCAR-8
PC-3 = test system: PC-3
RXF 393 = test system: RXF 393
SF-268 = test system: SF-268
SK-MEL-2 = test system: SK-MEL-2
SK-MEL-5 = test system: SK-MEL-5
SK-OV-3 = test system: SK-OV-3
SNB-75 = test system: SNB-75
UACC-62 = test system: UACC-62
T47D = test system: T47D
U-251 = test system: U-251

In the case of `[O-][n+]1onc2c1CCC(=N\O)/C2=N/Nc1ccccc1`, the GI50 (A549) is reported as > 100 µM (inactive), the GI50 (CAKI-1) is reported as > 100 µM (inactive) and the GI50 (CCRF-CEM) is reported as > 100000 nM (inactive). The GI50 (Hs-578T) was > 100 µM (inactive), the GI50 (K562) was > 100 µM (inactive) and the GI50 (KM12) was > 100 µM (inactive). For the same molecule, the GI50 (M14) was > 100 µM (inactive), the GI50 (MOLT-4) was > 100 µM (inactive) and the GI50 (OVCAR-5) was > 100 µM (inactive). The GI50 (OVCAR-8) was > 100 µM (inactive), the GI50 (PC-3) was > 100 µM (inactive) and the GI50 (RXF 393) was > 100 µM (inactive). The GI50 (SF-268) was > 100 µM (inactive), the GI50 (SK-MEL-2) was > 100 µM (inactive) and the GI50 (SK-MEL-5) was > 100 µM (inactive). The GI50 (SK-OV-3) was > 100 µM (inactive), the GI50 (SNB-75) was > 100 µM (inactive) and the GI50 (UACC-62) was > 100 µM (inactive).
With `CN(C)c1ccc(/C=C/C=c2/c3ccccc3n3c2cc(-c2ccccc2)[n+]3C)cc1` the GI50 (A549) was 0.26 µM (active), the GI50 (CAKI-1) was 0.251 µM (active) and the GI50 (CCRF-CEM) was 187 nM (active). For the same molecule, the GI50 (K562) was 0.0512 µM (active), the GI50 (KM12) was 0.0598 µM (active) and the GI50 (M14) was 0.215 µM (active). The GI50 (MOLT-4) was 0.0881 µM (active), the GI50 (OVCAR-5) was 0.478 µM (active) and the GI50 (OVCAR-8) was 0.102 µM (active). The GI50 (PC-3) was 0.133 µM (active), the GI50 (RXF 393) was 0.063 µM (active) and the GI50 (SF-268) was 0.497 µM (active). The GI50 (SK-MEL-2) was 4.54 µM (inactive), the GI50 (SK-MEL-5) was 0.169 µM (active) and the GI50 (SK-OV-3) was 0.348 µM (active). For the same molecule, the GI50 (SNB-75) was 0.336 µM (active), the GI50 (T47D) was 0.0735 µM (active) and the GI50 (U-251) was 0.0387 µM (active). The GI50 (UACC-62) was 0.217 µM (active).
`FC(F)(F)c1cc(Cl)cnc1N/N=C(/c1ccccc1)c1ccccn1` was tested, and the GI50 (A549) was 3.03 µM (inactive), the GI50 (CAKI-1) was 3.37 µM (inactive) and the GI50 (CCRF-CEM) was 492 nM (active). The GI50 (Hs-578T) was 0.422 µM (active), the GI50 (K562) was 2.16 µM (inactive) and the GI50 (KM12) was 1.85 µM (inactive). The GI50 (M14) was 0.719 µM (active), the GI50 (MOLT-4) was 1.31 µM (inactive) and the GI50 (OVCAR-5) was 2 µM (inactive). For the same molecule, the GI50 (OVCAR-8) was 1.8 µM (inactive), the GI50 (PC-3) was 3.54 µM (inactive) and the GI50 (RXF 393) was 9.66 µM (inactive). The GI50 (SF-268) was 0.78 µM (active), the GI50 (SK-MEL-2) was 3.96 µM (inactive) and the GI50 (SK-MEL-5) was 3.15 µM (inactive). The GI50 (SK-OV-3) was 2.49 µM (inactive), the GI50 (SNB-75) was 0.298 µM (active) and the GI50 (U-251) was 3.62 µM (inactive). For the same molecule, the GI50 (UACC-62) was 3.27 µM (inactive).
For `C/C=C\C(CC(=O)NCCc1cn(C(=O)OCc2ccccc2)c2ccccc12)CC(=O)OC` (stereo not drawn), the GI50 (A549) was 50.5 µM (inactive), the GI50 (CAKI-1) was > 100 µM (inactive) and the GI50 (Hs-578T) was > 100 µM (inactive). The GI50 (K562) was 71.1 µM (inactive), the GI50 (KM12) was 62.5 µM (inactive) and the GI50 (M14) was 86.7 µM (inactive). For the same molecule, the GI50 (MOLT-4) was 48 µM (inactive), the GI50 (OVCAR-5) was > 100 µM (inactive) and the GI50 (OVCAR-8) was > 100 µM (inactive). For the same molecule, the GI50 (PC-3) was 50.2 µM (inactive), the GI50 (RXF 393) was 56.4 µM (inactive) and the GI50 (SF-268) was > 100 µM (inactive). For the same molecule, the GI50 (SK-MEL-2) was > 100 µM (inactive), the GI50 (SK-MEL-5) was 34.9 µM (inactive) and the GI50 (SK-OV-3) was > 100 µM (inactive). For the same molecule, the GI50 (SNB-75) was > 100 µM (inactive), the GI50 (U-251) was > 100 µM (inactive) and the GI50 (UACC-62) was 90.4 µM (inactive).
`C=CC[C@H](O)[C@@](NC(=O)OCc1ccccc1)(Sc1ccc(C)cc1)C(F)(F)F` was tested, and the GI50 (A549) was 27.7 µM (inactive), the GI50 (CAKI-1) was 24.7 µM (inactive) and the GI50 (Hs-578T) was 24 µM (inactive). The GI50 (K562) was 35 µM (inactive), the GI50 (KM12) was 25.8 µM (inactive) and the GI50 (M14) was 20.7 µM (inactive). The GI50 (MOLT-4) was 20.3 µM (inactive), the GI50 (OVCAR-5) was 28.3 µM (inactive) and the GI50 (OVCAR-8) was 16.9 µM (inactive). For the same molecule, the GI50 (PC-3) was 29.8 µM (inactive), the GI50 (RXF 393) was 23.3 µM (inactive) and the GI50 (SF-268) was 18.1 µM (inactive). For the same molecule, the GI50 (SK-MEL-2) was 26.8 µM (inactive), the GI50 (SK-MEL-5) was 26.9 µM (inactive) and the GI50 (U-251) was 14.5 µM (inactive). The GI50 (UACC-62) was 30.7 µM (inactive).
In the case of `CC(=O)OC12C(C)=C(C)C(=O)N1c1ccccc1N2C(C)=O` (stereo not drawn), the GI50 (A549) is reported as > 100 µM (inactive), the GI50 (CAKI-1) is reported as > 100 µM (inactive) and the GI50 (CCRF-CEM) is reported as > 100000 nM (inactive). For the same molecule, the GI50 (K562) was > 100 µM (inactive), the GI50 (KM12) was > 100 µM (inactive) and the GI50 (M14) was > 100 µM (inactive). For the same molecule, the GI50 (MOLT-4) was > 100 µM (inactive), the GI50 (OVCAR-5) was > 100 µM (inactive) and the GI50 (OVCAR-8) was > 100 µM (inactive). For the same molecule, the GI50 (RXF 393) was > 100 µM (inactive), the GI50 (SF-268) was > 100 µM (inactive) and the GI50 (SK-MEL-2) was > 100 µM (inactive). For the same molecule, the GI50 (SK-MEL-5) was > 100 µM (inactive), the GI50 (SK-OV-3) was > 100 µM (inactive) and the GI50 (SNB-75) was > 100 µM (inactive). For the same molecule, the GI50 (U-251) was > 100 µM (inactive) and the GI50 (UACC-62) was > 100 µM (inactive).
With `O=C1c2cccc3cc([N+](=O)[O-])cc(c23)C(=O)N1CCNCCNCCNCCN1C(=O)c2cccc3cc([N+](=O)[O-])cc(c23)C1=O` the GI50 (A549) was < 0.001 µM (active), the GI50 (CAKI-1) was < 0.001 µM (active) and the GI50 (CCRF-CEM) was 1.22 nM (active). For the same molecule, the GI50 (K562) was < 0.001 µM (active), the GI50 (KM12) was < 0.001 µM (active) and the GI50 (M14) was 0.0188 µM (active). For the same molecule, the GI50 (MOLT-4) was < 0.001 µM (active), the GI50 (OVCAR-5) was 0.0111 µM (active) and the GI50 (OVCAR-8) was < 0.001 µM (active). The GI50 (RXF 393) was 0.122 µM (active), the GI50 (SF-268) was 0.00564 µM (active) and the GI50 (SK-MEL-2) was 0.00995 µM (active). The GI50 (SK-MEL-5) was 0.152 µM (active), the GI50 (SK-OV-3) was 0.0212 µM (active) and the GI50 (SNB-75) was 0.0108 µM (active). For the same molecule, the GI50 (U-251) was 0.00198 µM (active) and the GI50 (UACC-62) was 0.00322 µM (active).
In the case of `CCCCCCCCCC(=O)NC(CCC(=O)N(CCNC(=O)c1nc(-c2ccccc2)oc1-c1ccccc1)Cc1ccccc1)C(=O)O` (stereo not drawn), the GI50 (A549) is reported as 17.4 µM (inactive), the GI50 (CAKI-1) is reported as 16.7 µM (inactive) and the GI50 (KM12) is reported as 19.7 µM (inactive). For the same molecule, the GI50 (M14) was 15 µM (inactive), the GI50 (MOLT-4) was 22.4 µM (inactive) and the GI50 (OVCAR-5) was 17.1 µM (inactive). For the same molecule, the GI50 (OVCAR-8) was 17.5 µM (inactive), the GI50 (RXF 393) was 17.6 µM (inactive) and the GI50 (SF-268) was 16.5 µM (inactive). For the same molecule, the GI50 (SK-MEL-5) was 16.2 µM (inactive), the GI50 (SK-OV-3) was 16.9 µM (inactive) and the GI50 (SNB-75) was 14.5 µM (inactive). For the same molecule, the GI50 (T47D) was 20.4 µM (inactive) and the GI50 (U-251) was 18.9 µM (inactive).
